Legend:
DRAK1/STK17A = molecular target: T1, DRAK1/STK17A (Homo sapiens, UniProt Q9UEE5); conditions: 1 μM; Run 1, Run 2
T1 sequence (Q9UEE5 1-414): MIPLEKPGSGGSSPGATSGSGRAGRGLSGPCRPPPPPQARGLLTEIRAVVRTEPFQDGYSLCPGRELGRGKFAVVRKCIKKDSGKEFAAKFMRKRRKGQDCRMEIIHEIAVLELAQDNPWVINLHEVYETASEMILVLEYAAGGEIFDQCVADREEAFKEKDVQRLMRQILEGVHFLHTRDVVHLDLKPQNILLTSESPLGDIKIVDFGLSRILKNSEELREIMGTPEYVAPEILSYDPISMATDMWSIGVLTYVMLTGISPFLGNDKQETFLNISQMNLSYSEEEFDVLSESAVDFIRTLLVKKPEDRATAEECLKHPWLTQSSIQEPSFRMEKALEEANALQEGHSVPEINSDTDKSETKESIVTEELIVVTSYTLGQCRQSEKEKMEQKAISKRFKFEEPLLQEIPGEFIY

NEK3 = molecular target: T2, NEK3 (Homo sapiens, UniProt P51956); assay: biochemical; conditions: read-out: % enzyme activity, 1 μM; Run 1, Run 2
T2 sequence (P51956 1-506): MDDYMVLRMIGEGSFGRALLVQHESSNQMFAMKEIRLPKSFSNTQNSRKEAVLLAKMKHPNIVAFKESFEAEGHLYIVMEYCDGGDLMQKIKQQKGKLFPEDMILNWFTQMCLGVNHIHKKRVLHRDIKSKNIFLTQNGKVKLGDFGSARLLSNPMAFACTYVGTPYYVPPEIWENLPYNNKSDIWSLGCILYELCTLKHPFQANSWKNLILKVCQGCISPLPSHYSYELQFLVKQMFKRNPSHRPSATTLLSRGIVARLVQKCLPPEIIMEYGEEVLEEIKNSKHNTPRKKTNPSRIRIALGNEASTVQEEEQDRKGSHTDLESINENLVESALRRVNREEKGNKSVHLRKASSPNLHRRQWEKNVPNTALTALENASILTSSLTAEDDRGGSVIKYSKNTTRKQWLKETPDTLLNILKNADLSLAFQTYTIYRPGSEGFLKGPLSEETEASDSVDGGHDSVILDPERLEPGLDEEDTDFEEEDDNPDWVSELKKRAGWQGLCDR

CDK2/cyclin O = CDK2/cyclin O (Homo sapiens, UniProt P24941); conditions: 1 μM; Run 1, Run 2
PDK1/PDPK1 = molecular target: T3, PDK1/PDPK1 (Homo sapiens, UniProt O15530); assay: biochemical; conditions: read-out: % enzyme activity, 1 μM; Run 1, Run 2
T3 sequence (O15530 1-556): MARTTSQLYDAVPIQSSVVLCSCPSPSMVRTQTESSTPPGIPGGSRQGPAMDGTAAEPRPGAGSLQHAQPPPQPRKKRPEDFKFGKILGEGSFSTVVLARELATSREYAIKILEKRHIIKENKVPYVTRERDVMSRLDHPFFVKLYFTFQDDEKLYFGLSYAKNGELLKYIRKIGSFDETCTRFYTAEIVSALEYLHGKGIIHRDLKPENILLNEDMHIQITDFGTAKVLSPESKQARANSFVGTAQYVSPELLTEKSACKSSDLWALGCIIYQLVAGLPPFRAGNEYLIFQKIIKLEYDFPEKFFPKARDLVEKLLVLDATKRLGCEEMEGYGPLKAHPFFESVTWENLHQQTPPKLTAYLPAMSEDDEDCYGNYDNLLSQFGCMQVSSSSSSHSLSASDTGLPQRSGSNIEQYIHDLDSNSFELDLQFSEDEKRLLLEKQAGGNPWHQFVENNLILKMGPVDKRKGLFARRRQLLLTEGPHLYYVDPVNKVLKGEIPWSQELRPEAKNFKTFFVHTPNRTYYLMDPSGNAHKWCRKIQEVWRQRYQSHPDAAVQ

ZIPK/DAPK3 = ZIPK/DAPK3 (Homo sapiens, UniProt O43293); assay: biochemical; conditions: read-out: % enzyme activity, 1 μM; Run 1, Run 2
CAMK1a = CAMK1a (Homo sapiens, UniProt Q14012); conditions: 1 μM; Run 1, Run 2
EPHB4 = molecular target: T4, EPHB4 (Homo sapiens, UniProt P54760); conditions: 1 μM; Run 1, Run 2
T4 sequence (P54760 16-987): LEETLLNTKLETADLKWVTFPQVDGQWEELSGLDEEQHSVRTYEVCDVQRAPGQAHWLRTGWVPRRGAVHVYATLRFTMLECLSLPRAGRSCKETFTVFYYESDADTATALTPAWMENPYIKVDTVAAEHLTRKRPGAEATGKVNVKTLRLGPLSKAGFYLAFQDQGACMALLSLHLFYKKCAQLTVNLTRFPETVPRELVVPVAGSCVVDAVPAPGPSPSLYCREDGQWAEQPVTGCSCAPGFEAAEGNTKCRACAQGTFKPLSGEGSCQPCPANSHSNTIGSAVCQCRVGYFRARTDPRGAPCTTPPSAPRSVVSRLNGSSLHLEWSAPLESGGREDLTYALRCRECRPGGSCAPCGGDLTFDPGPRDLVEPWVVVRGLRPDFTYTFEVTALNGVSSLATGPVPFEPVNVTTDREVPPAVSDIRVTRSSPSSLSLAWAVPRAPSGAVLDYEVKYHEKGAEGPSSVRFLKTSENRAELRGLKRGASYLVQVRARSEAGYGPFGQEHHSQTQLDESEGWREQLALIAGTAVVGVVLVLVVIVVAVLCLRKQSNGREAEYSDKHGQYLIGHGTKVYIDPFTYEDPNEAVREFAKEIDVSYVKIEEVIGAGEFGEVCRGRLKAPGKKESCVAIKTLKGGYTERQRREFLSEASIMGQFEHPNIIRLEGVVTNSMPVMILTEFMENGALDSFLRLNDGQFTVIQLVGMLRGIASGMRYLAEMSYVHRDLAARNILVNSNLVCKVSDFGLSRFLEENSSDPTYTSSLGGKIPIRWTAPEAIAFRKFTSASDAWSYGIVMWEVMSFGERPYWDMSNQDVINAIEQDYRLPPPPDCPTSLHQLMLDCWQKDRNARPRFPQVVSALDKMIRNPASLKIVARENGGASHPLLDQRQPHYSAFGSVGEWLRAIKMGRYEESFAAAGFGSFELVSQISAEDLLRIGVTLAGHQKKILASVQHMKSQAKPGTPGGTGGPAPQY

Chain of ZIPK/DAPK3 (O43293 whole entry): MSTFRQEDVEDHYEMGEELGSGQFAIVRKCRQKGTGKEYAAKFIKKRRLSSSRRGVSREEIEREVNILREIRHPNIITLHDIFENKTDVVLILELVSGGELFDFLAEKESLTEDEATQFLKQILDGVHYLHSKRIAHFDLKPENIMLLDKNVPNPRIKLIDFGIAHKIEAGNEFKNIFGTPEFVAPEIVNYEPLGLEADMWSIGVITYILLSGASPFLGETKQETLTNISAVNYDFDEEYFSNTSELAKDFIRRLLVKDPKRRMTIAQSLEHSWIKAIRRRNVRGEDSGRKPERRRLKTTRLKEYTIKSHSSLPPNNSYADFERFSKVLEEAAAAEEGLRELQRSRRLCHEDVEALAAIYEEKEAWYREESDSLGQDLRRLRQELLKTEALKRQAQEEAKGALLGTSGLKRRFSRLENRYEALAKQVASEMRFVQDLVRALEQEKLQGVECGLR
Chain of CAMK1a (Q14012 whole entry): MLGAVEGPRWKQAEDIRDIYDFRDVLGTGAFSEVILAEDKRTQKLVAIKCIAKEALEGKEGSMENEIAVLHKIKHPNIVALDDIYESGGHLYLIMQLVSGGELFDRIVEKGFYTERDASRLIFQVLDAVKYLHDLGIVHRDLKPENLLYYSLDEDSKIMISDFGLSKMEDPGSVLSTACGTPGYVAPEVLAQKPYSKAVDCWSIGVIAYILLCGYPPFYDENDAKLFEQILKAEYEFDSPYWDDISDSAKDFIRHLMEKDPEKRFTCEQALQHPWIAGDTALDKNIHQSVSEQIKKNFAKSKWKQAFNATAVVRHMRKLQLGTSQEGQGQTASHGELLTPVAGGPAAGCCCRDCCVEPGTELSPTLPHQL

Compound | % enzyme activity (DRAK1/STK17A) [%] | remaining activity at 1 µM (NEK3) [%] | % enzyme activity (CDK2/cyclin O) [%] | remaining activity at 1 µM (PDK1/PDPK1) [%] | remaining activity at 1 µM (ZIPK/DAPK3) [%] | % enzyme activity (CAMK1a) [%] | % enzyme activity (EPHB4) [%]
COc1cc(-c2cncc(-c3ccc(N4CCN(C)CC4)cc3)c2C)cc(F)c1C(N)=O [Compound 26a, 2-Fluoro-6-methoxy-4-(4-methyl-5-(4-(4-methylpiperazin-1-yl)phenyl)pyridin-3-yl)benzamide] | 95.60 | 88.3 | 93.78 | 94.3 | 104 | 92.25 | 93.42
COc1cc(-c2cncc(-c3ccc(N4C[C@@H](C)N(C)[C@@H](C)C4)cc3)c2C)cc(F)c1C(N)=O [Compound 26c, 2-Fluoro-6-methoxy-4-(4-methyl-5-(4-((3R,5S)-3,4,5-trimethylpiperazin-1-yl)phenyl)pyridin-3-yl)benzamide] | 95.69 | 96.2 | 88.53 | 95.9 | 104 | 96.82 | 91.07
